# Results taken from patent US8703438B2, “Ligand binding stabilization method for drug target identification” (The Regents of the University of California, priority 2008, dated 2014).
# How the values were obtained:
# [1] = target: T1, proteins of S. cerevisiae BY4742 cell lysates (Saccharomyces cerevisiae, UniProt P10081); test: DARTS with yeast cell lysates incubated in vitro with resveratrol, mass spectrometry of protected bands; format: binding; settings: 1 mM resveratrol, Upper band
# T1 construct: endogenous in cells; host or cells: S. cerevisiae BY4742
# Method: (§1) For DARTS using yeast cell lysates incubated in vitro with resveratrol (FIG. 4B), S. cerevisiae BY4742 cells were used.
# (§2) Gel bands were cut out and prepared for mass spec analysis with trypsin digestion as described in SI. Peptides were analyzed by LC/MS/MS on a Thermo LTQ-Orbitrap mass spectrometer with an Eksigent LC pump. For quantitative comparison of protein and peptide abundances, MS spectra were analyzed using the differential workflow of Rosetta Elucidator (Rosetta Inpharmatics) (54). Annotation was performed using PeptideTeller and ProteinTeller (see SI).
# (§3) Proteins were initially identified by searching the spectra against the human International Protein Index database (version 3.46) and the S. cerevisiae Swissprot database (May 2008) using the SEQUEST algorithm (Eng et al. (1994) J Am Soc Mass Spectrom 5: 976-989) integrated into the Bioworks software package. Each peptide met the following criteria: XCorr ≧2 (+1), ≧3 (+2), ≧4 (+3), ≧5 (+4), and DeltaCN>0.1. For quantitative comparison of protein and peptide abundances, MS spectra were analyzed using the differential workflow of the Rosetta Elucidator software system (Rosetta Inpharmatics) (Neubert et al. (2008) J Proteome Res 7: 2270-2279). Annotation was performed using PeptideTeller and ProteinTeller with a minimum probability of 0.99 and predicted error of 0.0. Protein ratio data were generated with a P-value cutoff of 0.01 for all proteins with a peptide number >1. Intensity scaling was performed against the mean of feature signals, with 10% of outliers removed from the baseline dataset. Similar results were obtained in analysis without intensity scaling (FIG. 9A).
# (§4) For the DARTS experiment using yeast cell lysates incubated in vitro with resveratrol, BY4742 cells were suspended in yeast extraction buffer (Grant et al. (1999) Meth. Mol Biol 119: 311-317) [(40 mM HEPES/KOH pH 7.5, 350 mM NaCl, 0.5 mM DTT, 10% glycerol, 0.1% Tween-20) supplemented with Roche complete protease inhibitor cocktail (Roche Diagnostics, Indianapolis, Ind.)]. Cell pellets were broken with glass beads for 2×40 s at 4° C. in a FastPrep-24 (MP Biomedicals, Solon, Ohio). Whole cell lysates were collected after centrifugation (1500 rpm, 10 min). Lysates were incubated with ethanol control or 1 mM resveratrol for 30 min at room temperature. Samples were then divided into two aliquots, which underwent proteolysis with thermolysin or mock proteolysis.
# [2] = system: proteins of S. cerevisiae BY4742 cell lysates; test: as above; format: binding; settings: 1 mM resveratrol
# Method: as §1, §2, §3, §4
# [3] = system: yeast (wild type, tif1 or tif2 deletion mutants); test: Yeast growth inhibition; format: cell-based; settings: final concentration ˜1 mM
# Description: For cytotoxic and cytostatic small molecules, deletion mutants in their target often would have increased sensitivity to the drug (and overexpression could decrease sensitivity). Indeed, this is the basis for the elegant haploinsufficiency profiling (HIP) strategy (Giaever et al. (1999) Nat Genet. 21: 278-283). However, an inherent limitation of this type of fitness-based methods is that they are applicable only to drugs that affect cell growth/viability, i.e., cytotoxic or cytostatic drugs. […] A key advantage of DARTS is that it is independent of the drug's biological phenotype, and thus is not limited to the studies of cytotoxic/cytostatic drugs or drugs that induce transcriptional or morphological changes which have been the limitation of previous methods.
# [4] = target: T2, in vitro translated firefly luciferase (Photinus pyralis, UniProt P08659); test: Effect on firefly luciferase reaction in luciferase assay kits; format: biochemical
# T2 construct: made in house
# Description: Our data in FIG. 4D were based on the Dual-Glo kit, in which the luciferase reaction is not affected by resveratrol. Also, there was no resveratrol added to the in vitro luciferase assay reactions in FIG. 4D. Rather, resveratrol was used to treat cells and washed away before the cells were lysed for luciferase assay.
# T2 sequence (P08659 whole entry): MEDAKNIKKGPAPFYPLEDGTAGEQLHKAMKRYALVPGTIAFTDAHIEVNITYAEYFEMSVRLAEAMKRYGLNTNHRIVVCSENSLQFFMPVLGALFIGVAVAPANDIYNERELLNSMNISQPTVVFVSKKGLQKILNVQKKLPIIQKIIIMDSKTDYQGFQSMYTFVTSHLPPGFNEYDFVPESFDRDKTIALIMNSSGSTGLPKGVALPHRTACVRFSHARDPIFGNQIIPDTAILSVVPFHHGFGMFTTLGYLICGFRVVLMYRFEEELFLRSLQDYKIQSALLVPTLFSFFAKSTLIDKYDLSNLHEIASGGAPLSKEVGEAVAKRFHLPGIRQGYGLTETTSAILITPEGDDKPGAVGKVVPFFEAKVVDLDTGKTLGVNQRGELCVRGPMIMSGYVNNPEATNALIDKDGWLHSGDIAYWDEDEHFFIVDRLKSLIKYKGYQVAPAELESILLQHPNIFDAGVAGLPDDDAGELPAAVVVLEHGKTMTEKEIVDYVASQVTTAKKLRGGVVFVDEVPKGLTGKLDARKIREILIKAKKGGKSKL
# T1 sequence (P10081 whole entry): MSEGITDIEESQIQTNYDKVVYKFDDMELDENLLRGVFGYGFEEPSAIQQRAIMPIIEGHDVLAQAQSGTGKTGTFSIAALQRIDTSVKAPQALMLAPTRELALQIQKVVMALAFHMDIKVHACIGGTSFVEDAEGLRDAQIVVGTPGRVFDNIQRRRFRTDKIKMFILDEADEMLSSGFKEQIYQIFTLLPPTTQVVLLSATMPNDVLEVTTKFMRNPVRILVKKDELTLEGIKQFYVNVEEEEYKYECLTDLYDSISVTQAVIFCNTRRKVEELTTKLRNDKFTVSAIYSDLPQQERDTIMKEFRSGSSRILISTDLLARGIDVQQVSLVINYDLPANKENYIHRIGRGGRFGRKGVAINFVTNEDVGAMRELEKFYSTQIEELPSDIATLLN
smiles,measurement,setting,value
Oc1ccc(C=Cc2cc(O)cc(O)c2)cc1 [resveratrol],"Fold Change, ATP-dependent RNA helicase eIF4A",[1],1.961
same,"Fold Change, 40S ribosomal protein S12",[2]; Lower band,2.07
same,"Fold Change, 40S ribosomal protein S15",[2]; Lower band,3.677
same,"Fold Change, 40S ribosomal protein S16",[2]; Lower band,2.906
same,"Fold Change, 40S ribosomal protein S18",[2]; Lower band,2.412
same,"Fold Change, 40S ribosomal protein S19",[2]; Lower band,1.965
same,"Fold Change, 40S ribosomal protein S24",[2]; Lower band,1.481
same,"Fold Change, 40S ribosomal protein S26-B",[2]; Lower band,2.429
same,"Fold Change, 60S ribosomal protein L14-A",[2]; Lower band,1.614
same,"Fold Change, 60S ribosomal protein L25",[2]; Lower band,3.564
same,"Fold Change, 60S ribosomal protein L26-A",[2]; Lower band,9.181
same,"Fold Change, 60S ribosomal protein L26-B",[2]; Lower band,11.107
same,"Fold Change, 60S ribosomal protein L34",[2]; Lower band,2.383
same,"Fold Change, 60S ribosomal protein L35",[2]; Lower band,3.774
same,"Fold Change, Histone H2A",[2]; Lower band,3.002
same,"Fold Change, Histone H2B",[2]; Lower band,2.229
same,"Fold Change, Ornithine aminotransferase",[2]; Lower band,2.531
same,"Fold Change, 40S ribosomal protein S23",[2]; Upper band,4.84
same,"Fold Change, 40S ribosomal protein S26",[2]; Upper band,4.701
same,"Fold Change, 60S ribosomal protein L21-A",[2]; Upper band,2.777
same,"Fold Change, 60S ribosomal protein L24",[2]; Upper band,6.05
same,"Fold Change, 60S ribosomal protein L25",[2]; Upper band,2.713
same,"Fold Change, 60S ribosomal protein L27-A",[2]; Upper band,2.554
same,"Fold Change, 60S ribosomal protein L28",[2]; Upper band,1.804
same,inhibition of yeast growth,[3],did not cause detectable inhibition of yeast growth
same,firefly luciferase readout,[4]; Bright-Glo kit (Promega #E2610),significantly decreased
same,firefly luciferase readout,[4]; Dual-Glo kit (Promega #E2940),little or no inhibition
